Measurements from patent US6995269B2, “Guanidinobenzamides” (Chiron Corporation, priority 2000, dated 2006).

Key:
Assay type in all cases: in vivo
ob/ob mice [1] = experiment: Body weight in ob/ob mice, 4 week IP treatment; settings: 3 mg/kg IP twice daily for 4 weeks
Method: (§1) In vivo studies were conducted to observe the effect of MCR-4 agonists on energy intake, body weight, hyperinsulinemia, and glucose levels. All studies were conducted with male-9–10 week old ob/ob mice which display early onset of obesity, insulin resistance and diabetes due to leptin deficiency. Mice were acclimated in the facility for 1 week before studies and are caged individually. Vehicle-treated (control) and drug treated mice studies were always run in parallel. In multi-day studies, mice (8–15 per group) were monitored for baseline body weight, fasting levels of glucose, insulin, blood lipids and energy expenditure and then injected twice daily (9 a.m. and 5 p.m.) with 3 mg/kg of the MC4-R agonist 4-[(N-cyclohexyl-3,5-dimethyl-piperazine-1-carboximidoyl)-amino]-N-[2-(2,4-dichlorophenyl)-ethyl]-benzamide for 4 weeks. Body weight as well as food and water intake were monitored daily. […] Energy expenditure (resting metabolic rate, i.e., O2 consumption and CO2 production) were monitored in air tight chambers at the end of the study on fed animals. O2 consumption and CO2 production were measured using Oxymax systems (Columbus Instruments). […] Blood glucose and oral glucose tolerance were measured using a glucose monitor (Onetouch sold by Lifescan). Free fatty acids were measured using an non-esterified free fatty acids enzymatic assay (Waco Chemicals). […]

ob/ob mice [2] = experiment: Oral glucose tolerance test (OGTT) in ob/ob mice at end of study; settings: overnight fasted ob/ob mice at end of 4 week study, oral glucose load, vs vehicle
Method: as §1

ob/ob mice [3] = experiment: Food intake in ob/ob mice, 4 week IP treatment; settings: 3 mg/kg IP twice daily for 4 weeks, vs vehicle
Method: as §1

ob/ob mice [4] = experiment: Serum insulin levels after single IP dosing in ob/ob mice; settings: overnight fasted ob/ob mice
Method: as §1

ob/ob mice [5] = experiment: Fasting blood glucose in ob/ob mice, 4 week IP treatment; settings: ob/ob mice fasted overnight, 3 mg/kg IP twice daily for 4 weeks, vs vehicle
Method: as §1

ob/ob mice [6] = experiment: Free fatty acid levels in ob/ob mice; settings: ob/ob mice fasted overnight, drug treated IP vs vehicle
Method: as §1

With `CC1CN(C(=NC2CCCCC2)Nc2ccc(C(=O)NCCc3ccc(Cl)cc3Cl)cc2)CC(C)N1` (stereo not shown) [4-[(N-cyclohexyl-3,5-dimethyl-piperazine-1-carboximidoyl)-amino]-N-[2-(2,4-dichlorophenyl)-ethyl]-benzamide] the “body weight less than the vehicle treated mice at the end of the study” value (ob/ob mice [1]) was 19%, the “decrease of the area under the curve of glucose in OGTT” value (ob/ob mice [2]) was 45% and the food intake (ob/ob mice [3]) was “significant reduction in food intake”. The “decrease of serum insulin levels relative to vehicle” value (ob/ob mice [4]; one hour after single IP dosing of 1 mg/kg) was 27%, the “decrease of serum insulin levels relative to vehicle” value (ob/ob mice [4]; one hour after single IP dosing of 3 mg/kg) was 55% and the “decrease in fasting blood glucose levels” value (ob/ob mice [5]) was 47%. The “decrease in free fatty acid (FFA) levels” value (ob/ob mice [6]) was 50%.
